In US12508261B2, “Methods of treating depression with vortioxetine” (Rundle Research LLC, priority 2017, dated 2025):

Assay: Clinical pharmacokinetic study (RUN-001): vortioxetine 5 mg once daily for 29 days, then 28 days washout, obese vs normal-weight subjects
Type: in vivo, human
Details: both, human, in vivo
Procedure: To test if the obese patients would require different washout guidelines for preventing serotonin syndrome, 16 obese subjects (BMI≥35) and 13 normal subjects (BMI<25) completed a clinical trial where they were administered daily with low doses (5 mg/day) of vortioxetine for 29 days in a controlled study. All subjects were subsequently tracked for 28 days after discontinuing vortioxetine on day 29. Blood samples were collected and processed according to standard techniques.
The normal-weight control group consisted of healthy male and female volunteers aged 18 to 45 years. Their body mass index (BMI) values fell in the range of […]. […] Normal weight and obese subjects were matched as closely as possible for gender and age.
CYP2D6 genotype status was determined from whole blood samples drawn from each subject. Known alleles of CYP2D6 were tested for, as well as the presence of gene duplications (LabCorp, Inc.). CYP2D6 metabolizer status was categorized as ultra-rapid, extensive, intermediate, or poor. Ultra-rapid and poor metabolizers were not included in the study.
All subjects received vortioxetine, 5 mg once daily in the morning, for 29 days. The first dose was on Day 1, and the last dose was on Day 29. Blood sampling continued for another 28 days after the last dose, through Day 57.
Subjects spent 12 hours in the study unit on Day 1 (first dose of vortioxetine) and Day 29 (last dose of vortioxetine). On those two study days, venous blood samples (7 mL each) were drawn prior to the dose of vortioxetine, and at 1, 2, 4, 6, 8, 10, and 12 hours after dosage.
During the 29-day period of daily vortioxetine administration, subjects returned to the study unit in the morning of the following study days: 2, 3, 5, 8, 10, 12, 15, 17, 19, 22, 24, 26, and 29. At each visit, a single venous blood sample (7 mL) was drawn before the daily dose of vortioxetine. Subjects underwent a brief interview to assess subjective effects and possible adverse events. Subjects were then discharged until the next scheduled visit. They were provided with vortioxetine doses sufficient for daily morning administration until the next visit. No more than 2 consecutive doses of vortioxetine were taken on an outpatient basis.
On Day 29 (the final dose of vortioxetine), subjects spent 12 hours in the study unit as described above. They returned to the study unit for a single blood sample on the mornings of the following Days: 30, 31, 33, 36, 38, 40, 43, 45, 47, 50, 52, 54, and 57.
Plasma concentrations of vortioxetine were determined by liquid chromatography—mass spectrometry using a Shimadzu HPLC system coupled to a Sciex API-4000 mass spectrometer.
The internal standard (vortioxetine-d8) was added to calibration standards, quality control samples, and unknown study samples. All samples were extracted with methyl tert-butyl ether. The organic phase was separated and evaporated to dryness; the reconstituted extract was injected into the HPLC system. The HPLC column was a Unison UK-C18, 50 mm×2 mm, 3 micron particle size. The mobile phase consisted of an organic component (0.1% formic acid in acetonitrile) and an aqueous component (0.1% formic acid and 2 mM ammonium acetate in water). This was delivered in gradient mode at a net flow rate of 0.4 mL/min, with the organic fraction varying from 40% to 96%. m/z monitored were: 299.1/150.1 for vortioxetine, and 307.1/153 for vortioxetine-d8. The limit of quantitation was 0.1 ng/mL. […] All samples from a given study subject were extracted and analyzed at the same time using the same calibration standards.
Based on the clinical trials discussed above, several equations were derived which allow an individual to calculate the washout period (i.e., the time between stopping vortioxetine and initiating treatment with an MAOI). Data points to consisted of pre-dose plasma vortioxetine concentration (C) on each study day (t), both during (Days 1-29) and after (Days 30-57) the period of vortioxetine administration. […]

CC[C@@H]([C@H](C)O)n1ncn(-c2ccc(N3CCN(c4ccc(OC[C@@H]5CO[C@@](Cn6cncn6)(c6ccc(F)cc6F)C5)cc4)CC3)cc2)c1=O [posaconazole]
elimination half-life: 78.2 h
